In data set [1] the test system is Caco-2 bilayers. Description: Caco-2 bidirectional permeability assay. In kind it is in vitro ADME, human. The note with it: Caco-2 permeability classification. The text has this: (§1) Oral bioavailability is a highly important consideration when developing bioactive molecules as therapeutic agents. A critical factor of oral bioavailability is human intestinal absorption. The Caco-2 bidirectional permeability assay is the most widely used in vitro model for predicting if a bioactive molecule can have adequate systemic absorption. Thus, we selected HSGN-238 to act as a model to analyze the drug-like properties of newly synthesized N-(1,3,4-oxadiazol-2-yl)benzamides.
(§2) Assay and data analysis were performed by Eurofins Panlabs (MO, USA) according to a previously reported protocol. The apparent permeability coefficient (Papp) of the tested agents was calculated using the equation below: Papp(cm/s)=VR∗CR,end/Δt∗1/A∗(CD,mid−CR,mid), where VR is the volume of the receiver chamber. CR,end is the concentration of the test compound in the receiver chamber at the end time point, Δt is the incubation time, and A is the surface area of the cell monolayer. CD,mid is the calculated mid-point concentration of the test compound in the donor side, which is the mean value of the donor concentration at 0 minutes and the donor concentration at the end time point. CR,mid is the mid-point concentration of the test compound in the receiver side, which is one half of the receiver concentration at the end time point. Concentrations of the test compound were expressed as peak areas of the test compound.

Data set [2] is described as follows: Caco-2 bidirectional permeability assay. In kind it is in vitro ADME, human. The conditions noted are these: human, Caco-2.
Text: as §1, §2
On the technique in general: Caco-2 monolayers are a common model of the intestinal barrier.

For data set [3], the system named is human colorectal cells (Caco-2). Description: In vitro cytotoxicity, MTS assay. It counts as cell-based. The method, then: HSGN-237 and -238 were assayed for potential cytotoxicity against a human colorectal adenocarcinoma (Caco-2) cell line, as described previously. Briefly, tested compounds were incubated with caco-2 cells for 24 and 48 h. Then, the cells were incubated with MTS (3-(4,5-dimethylthiazol-2-yl)-5-(3-carboxymethoxyphenyl)-2-(4-sulfophenyl)-2H-tetrazolium) reagent for 4 h before measuring the absorbance values (OD490).
Figure 2 In vitro cytotoxicity assessment of HSGN-237 and -238 (tested in triplicate) against human colorectal cells (Caco-2) after (A) 24 h, and (B) 48 h, using the 3-(4,5-dimethylthiazol-2-yl)-5-(3-carboxymethoxyphenyl)-2-(4-sulfophenyl)-2H-tetrazolium (MTS) assay. Results are presented as percent viable cells relative to DMSO (negative control). Error bars represent standard deviation values. A two-way ANOVA, with post hoc Dunnet’s multiple comparisons test, determined the statistical difference between the values obtained for the compound and DMSO. Asterisks denote statistically significant differences between treatments of cells with either HSGN-237 or -238 as compared to DMSO-treated cells. The experiment was repeated 3 independent times.
(Formazan colour is commonly taken as a measure of viable cells.)

For data set [4], the system named is L. monocytogenes ATCC 19115. Description: MIC/MBC (CLSI broth microdilution) against L. monocytogenes ATCC 19115. It counts as cell-based. The conditions noted are these: Listeria monocytogenes, ATCC19115, L. monocytogenes ATCC 19115. For orientation: Dilution methods test growth across graded concentrations, often in twofold steps.

≈ marks a conversion by molar mass, not a printed value.

A word on the Papp A→B: it is how fast a substance crosses the layer from the apical side. The low end stands for slow passage, the high end for fast passage. One may read the Papp B→A as how fast a substance crosses the layer from the basolateral side. Usually MBC stands for the lowest tested concentration that kills the bacteria rather than only halting them. By MIC is commonly meant the least concentration at which growth counts as inhibited. As to `O=C(Nc1nnc(-c2ccc(Cl)s2)o1)c1ccc(OC(F)(F)F)cc1` [HSGN-238, N-(5-(5-Chlorothiophen-2-yl)-1,3,4-oxadiazol-2-yl)-4-(trifluoromethoxy)benzamide], the “Notes (permeability class)” value in data set [1] is recorded as “High Permeability”. In data set [2] (apical to basolateral), this molecule came in with a Papp A→B of 82.3 ×10⁻⁶ cm/s. This molecule displayed a Papp B→A in data set [2] (basolateral to apical) of 32.9 ×10⁻⁶ cm/s. In addition, the non-toxic concentration entry in data set [3] (Caco-2 cells, 24 and 48 h, MTS assay) is listed as “up to 16 µg/mL”. For the same molecule, the “non-toxic concentration relative to MIC against N. gonorrhoeae” value in data set [3] (Caco-2 non-toxic concentration versus corresponding MIC) is given as 128 times. In addition, the MBC in data set [4] (read-out: MBC) worked out at 32 µg/mL (≈ 82.1 µM). Besides, the MIC in data set [4] (read-out: MIC) was determined as 0.5 µg/mL (≈ 1.28 µM).

(Values after PMC7957578, “N-(1,3,4-Oxadiazol-2-yl)Benzamides as Antibacterial Agents against Neisseria gonorrhoeae” (International Journal of Molecular Sciences, 2021).)
